Measured values from patent US20240165243A1, “EGFR DEGRADERS AND METHODS OF USE” (BeiGene Switzerland GmbH, priority 2021, published 2024).

Assays:
EGFR (Del19/T790M/C797S) = test: Cell degradation HTRF assay, H1975-clone #28 cells; type: cell-based; conditions: H1975-clone #28 (Del19/T790M/C797S) cells, 16 h treatment; for DC50: HTRF, read-out: H1975-clone#28 DTC DC50; for H1975-clone#28 DTC Dmax (%): maximum percentage of degradation
Summary of the method: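 H1975 clones #25 and #28 were treated 16 h at 37° C, 5% CO2 with 8 doses (top 10 uM, 5-fold dilution) in 0.2% DMSO medium. EGFR in lysates read by HTRF (665/620 nm); degradation % relative to DMSO high control; DC50 from 4-parameter fit, Dmax = maximal degradation.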

EGFR (L858R/T790M/C797S) = EGFR (L858R/T790M/C797S) (Homo sapiens, UniProt P00533, C797S/L858R/T790M); test: Cell degradation HTRF assay, H1975-clone #25 cells; type: cell-based; conditions: H1975-clone #25 (L858R/T790M/C797S) cells, 16 h treatment; for DC50: HTRF, read-out: H1975-clone#25 LTC DC50; for Dmax: maximum percentage of degradation, read-out: H1975-clone#25 LTC Dmax (%)
EGFR (L858R/T790M/C797S), sequence (P00533 25-1210 T790M/C797S/L858R): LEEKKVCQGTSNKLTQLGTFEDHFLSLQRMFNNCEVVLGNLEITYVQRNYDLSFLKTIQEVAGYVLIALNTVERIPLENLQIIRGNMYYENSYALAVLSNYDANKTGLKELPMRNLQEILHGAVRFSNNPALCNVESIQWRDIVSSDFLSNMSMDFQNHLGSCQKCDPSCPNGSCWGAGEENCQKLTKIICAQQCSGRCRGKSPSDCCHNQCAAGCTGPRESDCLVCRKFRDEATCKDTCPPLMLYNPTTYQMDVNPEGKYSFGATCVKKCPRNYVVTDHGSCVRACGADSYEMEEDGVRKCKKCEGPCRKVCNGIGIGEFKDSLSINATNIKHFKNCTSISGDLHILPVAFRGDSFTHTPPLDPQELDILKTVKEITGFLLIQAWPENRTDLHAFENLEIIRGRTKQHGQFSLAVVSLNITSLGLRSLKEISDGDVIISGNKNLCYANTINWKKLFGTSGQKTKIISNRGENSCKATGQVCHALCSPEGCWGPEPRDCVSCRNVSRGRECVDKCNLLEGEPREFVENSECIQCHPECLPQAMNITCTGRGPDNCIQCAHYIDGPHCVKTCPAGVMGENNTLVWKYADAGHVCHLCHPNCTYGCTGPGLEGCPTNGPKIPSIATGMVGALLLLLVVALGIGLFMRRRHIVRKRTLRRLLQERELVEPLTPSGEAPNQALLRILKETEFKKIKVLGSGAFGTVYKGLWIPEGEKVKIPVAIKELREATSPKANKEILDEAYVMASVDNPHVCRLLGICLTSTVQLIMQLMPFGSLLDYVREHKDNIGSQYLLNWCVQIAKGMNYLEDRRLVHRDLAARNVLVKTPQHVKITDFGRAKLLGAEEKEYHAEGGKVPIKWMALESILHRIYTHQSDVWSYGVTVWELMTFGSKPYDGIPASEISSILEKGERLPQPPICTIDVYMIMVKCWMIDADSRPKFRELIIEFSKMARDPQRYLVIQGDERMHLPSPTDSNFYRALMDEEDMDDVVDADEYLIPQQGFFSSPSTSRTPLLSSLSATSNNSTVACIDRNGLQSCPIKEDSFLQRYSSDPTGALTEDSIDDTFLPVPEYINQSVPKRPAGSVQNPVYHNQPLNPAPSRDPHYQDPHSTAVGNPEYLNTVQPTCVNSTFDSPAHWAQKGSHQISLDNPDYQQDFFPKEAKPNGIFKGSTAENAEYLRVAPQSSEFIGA
Description: Cell Degradation of Example 124-189
H1975-#28 and H1975-#25 cells are treated with compounds diluted in 0.2% DMSO cell culture medium on day 2, incubate for 16 h, 37° C., 5% CO2. the final concentration of compounds in all assay is start with 10 uM, 5-fold dilution, total 8 doses were included.
After 16 h treatment, add HTRF lysis buffer to each well; seal the plate and incubate 1 hour at room temperature on a plate shaker; Once the cells are lysed, 16 μL of cell lysate are transferred to a PE 384-well HTRF detection plate; 4 μL of pre-mixed HTRF antibodies are added to each well; Cover the plate with a plate sealer, spin 1000 rpm for 1 min, Incubate overnight at room temperature; Read on BMG PheraStar with HTRF protocol (337 nm-665 nm-620 nm).
The inhibition (degradation) percentage of the compound was calculated by the following equation:
Inhibition percentage of Compound=100−100×(Signal−low control)/(High control−low control), wherein signal=each test compound group.
High control=Cell group with added DMSO and without compound, indicating microplate readings without EGFR degradation;
Dmax is the maximum percentage of inhibition (degradation).
The IC50 (DC50) value of a compound can be obtained by fitting the following equation
Y=Bottom+(TOP−Bottom)/(1+((IC50/X)^hillslope))
Wherein, X and Y are known values, and IC50, Hillslope, Top and Bottom are the parameters obtained by fitting with software. Y is the inhibition percentage (calculated from the equation), X is the concentration of the compound; IC50 is the concentration of the compound when the 50% inhibition is reached. The smaller the IC50 value is, the stronger the inhibitory ability of the compound is. Vice versa, the higher the IC50 value is, the weaker the ability the inhibitory ability of the compound is; Hillslope represents the slope of the fitted curve, generally around 1*; Bottom represents the minimum value of the curve obtained by data fitting, which is generally 0%±20%; Top represents the maximum value of the curve obtained by data fitting, which is generally 100%±20%. The experimental data were fitted by calculating and analyzing with Dotmatics data analysis software. When Dmax<50%, DC50 will be automatically assigned as larger than […].

| SMILES | DC50 (EGFR (Del19/T790M/C797S)) [nM] | H1975-clone#28 DTC Dmax (%) (EGFR (Del19/T790M/C797S)) | DC50 (EGFR (L858R/T790M/C797S)) [nM] | Dmax (EGFR (L858R/T790M/C797S)) [%] |
| --- | --- | --- | --- | --- |
| CCOc1cc(N2CCC(N3CCN(CCc4cccc5c4n(C)c(=O)n5C4CCC(=O)NC4=O)CC3)CC2)c(CC)cc1Nc1ncc(Br)c(Nc2cnc3cc(F)ccc3c2P(C)(C)=O)n1 (centres unmarked) [Example 147, 3-(4-(2-(4-(1-(4-((5-bromo-4-((4-(dimethylphosphoryl)-7-fluoroquinolin-3-yl)amino)pyrimidin-2-yl)amino)-5-ethoxy-2-ethylphenyl)piperidin-4-yl)piperazin-1-yl)ethyl)-3-methyl-2-oxo-2,3-dihydro-1H-benzol[d]imidazol-1-yl) piperidine-2,6-dione] | 0.4 | 84 | 15.3 | 77 |
| CCc1cc(Nc2ncc(Br)c(Nc3cnc4ccc(C(F)(F)F)cc4c3P(C)(C)=O)n2)c(OC)cc1N1CCC(N2CCN(CCc3cccc4c3n(C)c(=O)n4C3CCC(=O)NC3=O)CC2)CC1 (centres unmarked) [Example 166, 3-(4-(2-(4-(1-(4-((5-bromo-4-((4-(dimethylphosphoryl)-6-(trifluoromethyl)quinolin-3-yl)amino)pyrimidin-2-yl)amino)-2-ethyl-5-methoxyphenyl)piperidin-4-yl)piperazin-1-yl)ethyl)-3-methyl-2-oxo-2,3-dihydro-1H-benzo[d]imidazol-1-yl)piperidine-2,6-dione] | 2.8 | 80 | 4.2 | 81 |
